Source: patent US20140116103A1, “FOLIARLY APPLICABLE SILICON NUTRITION COMPOSITIONS & METHODS” (priority 2008, published 2014)

Experiments:
Bipolaris oryzae = assay type: in vivo, Bipolaris oryzae on rice; details: A, B, C, F compared to control, D compared to A
Method: The trial was arranged in a completely randomized design with five replications. Each experimental unit consisted of one plastic container with 5 liters of nutrient solution and four rice plants. The experiment was repeated once. Compositions A-F were applied to rice leaves as foliar sprays 24 hours before inoculation with the brown spot pathogen Bipolaris oryzae. Solutions of compositions A-D were prepared at 2% concentration. The fungicide (composition F) was prepared at 1.5 ml/liter concentration. Plants at the fifth leaf tiller growth stage were sprayed using a DeVilbiss No. 15 atomizer. The base of the plants was covered during spraying to prevent run-off of the sprayed materials into the nutrient solution.
A pathogenic isolate of B. oryzae (CNPAF-HO 82), obtained from symptomatic rice plants, was used to inoculate the plants. A conidial suspension of B. oryzae (5×10^3 conidia/ml) was applied as a fine mist to the adaxial leaf blades of each plant until runoff using a VL Airbrush atomizer (Paasche Airbrush Co., Chicago, Ill.). Immediately after inoculation, plants were transferred to a mist chamber at 25±2° C. with an initial 24 h dark period. […]
Brown spot severity on leaves of each plant was scored at 24, 48, 72 and 96 hours after inoculation using an International Rice Research Institute (IRRI) scale based on the percentage of diseased leaf area.

[1] = generally accepted limit; cited from earlier work

Structure (SMILES)	necrotic lesions on leaves (number and size) (Bipolaris oryzae)	limit of solubility in water [1]
CC1COC(Cn2cncn2)(c2ccc(Oc3ccc(Cl)cc3)cc2Cl)O1 (centres unmarked) [Composition F, diphenoconazole]	complete absence of lesions	
O[Si](O)(O)O [monosilicic acid]		about 2 mM
